Experimental data from patent US20230174584A1, “Antibiotic Compounds” (priority 2019, published 2023).
Values after ≈ are worked out from the molar mass of the structure shown.

Tests used:
Type in all cases: cell-based, Enterococcus faecium
[1] = system: panel of 31 vancomycin-resistant E. faecium strains; experiment: MIC assay, MIC50/MIC90 over panel
Description: The antibacterial activity of the compounds was tested against a panel of bacteria, including Gram-positive bacteria (S. aureus ATCC29213, S. aureus USA300, S. aureus LIM-2, NR-45881, S. aureus HIP13419, NR-46413, E. faecium E155, E. faecium E7314, E. faecium E980, E. faecalis E1246, E. faecalis E7406 and S. pneumonia 153). The antibacterial activity of the compounds was further tested against S. aureus NY-155, NR-46236, S. aureus HIP12864, NR-46074, S. aureus 880 (BR-VRSA), NR-49120, E. faecalis E1246, E. faecalis E7604, as well as some Gram-negative bacteria (Escherichia coli and Klebsiella pneumoniae). Minimum inhibitory concentrations (MICs) in μg/mL were performed according to the CLSI guidelines. From glycerol stocks, bacterial strains were cultured on blood agar plates and incubated at 37° C. for 18 h. A single colony was transferred to tryptic soy broth (TSB) with 0.002% polysorbate 80 (p80). For the Enterococcus, VISA and VRSA strains, the cultures were grown at 37° C. until the optical density of the suspension reached a level equivalent to the 0.5 McFarland standard. The bacterial suspensions were diluted in TSB with 0.002% p80 to reach a bacterial cell density of 10^6 CFU/mL. In case of the other (vancomycin-sensitive) S. aureus strains, the direct colony suspension method was used. For these strains, after transfer of the colonies to TSB with 0.002% p80, they were immediately diluted to 10^6 CFU/mL, instead of incubated prior to this dilution. In the case of S. pneumonia, direct colony suspension was used by immediately suspending multiple colonies from fresh blood agar plates in TSB+0.002% p80 to an OD600 of 0.5 and subsequent dilution to 10^6 CFU mL^−1 in TSB+0.002% p80+5% lysed horse blood. Antibiotic dilutions for this strains were also made in TSB+0.002% p80+5% lysed horse blood. Both agar and microplates containing S. pneumonia were incubated at 37° C. with 5% CO2 for 24 h with constant shaking (600 rpm). […] The cultures were grown to exponential phase (OD600=0.5) at 37° C. […] In polypropylene 96-well microtiter plates, test compounds were added in biological triplicates and serial diluted 2-fold by transfer and mixing from one well to the next to achieve a final volume of 50 μL per well. An equal volume of bacterial suspension (10^6 CFU mL^−1) was added to the wells. The plates were sealed with breathable membranes and incubated at 37° C. for 24 h with constant shaking (600 rpm). In polypropylene microtiter plates, 100 μL of the test compounds was added to the first row in biological triplicates, and 50 μL of media was added to the other wells. The compounds were subjected to serial dilution by transfer and mixing of 50 μL from one well to the next. Subsequently, 50 μL of bacterial suspension (10^6 CFU/mL) was added to the wells. The plates were sealed with breathable membranes and incubated at 37° C. for 24 h with constant shaking (600 rpm). Positive growth control consisted of wells with bacterial suspension and without antibiotic. Negative growth control consisted of solely media without bacterial suspension or antibiotic. The MICs were determined from the median of a minimum of triplicates.

[2] = system: E. faecium E0745; experiment: MIC assay
In short: (§1)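 We measured MICs by CLSI broth microdilution with polysorbate 80 (0.002%) in TSB, a 10^6 CFU/mL inoculum, and a 24 h, 37 °C shaken incubation.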

[3] = system: E. faecium E0013; experiment: MIC assay
In short: as §1

[4] = system: E. faecium E7329; experiment: MIC assay
In short: as §1

[5] = system: E. faecium E7403; experiment: MIC assay
In short: as §1

[6] = system: E. faecium EO321; experiment: MIC assay
In short: as §1

[7] = system: E. faecium E6016; experiment: MIC assay
In short: as §1

[8] = system: E. faecium E0333; experiment: MIC assay
In short: as §1

[9] = system: E. faecium E7413; experiment: MIC assay
In short: as §1

[10] = system: E. faecium E7424; experiment: MIC assay
In short: as §1

[11] = system: E. faecium E980; experiment: MIC assay
In short: as §1

[12] = system: E. faecium E8237; experiment: MIC assay
In short: as §1

[13] = system: E. faecium E2297; experiment: MIC assay
In short: as §1

[14] = system: E. faecium E7464; experiment: MIC assay
In short: as §1

[15] = system: E. faecium E1679; experiment: MIC assay
In short: as §1

[16] = system: E. faecium E2373; experiment: MIC assay
In short: as §1

[17] = system: E. faecium E7319; experiment: MIC assay
In short: as §1

[18] = system: E. faecium E2365; experiment: MIC assay
In short: as §1

[19] = system: E. faecium E1130; experiment: MIC assay
In short: as §1

[20] = system: E. faecium E7312; experiment: MIC assay
[21] = system: E. faecium E0338; experiment: MIC assay
[22] = panel of 31 vancomycin-resistant E. faecium strains

## CN[C@H](CC(C)C)C(=O)N[C@H]1C(=O)N[C@@H](CC(N)=O)C(=O)N[C@H]2C(=O)N[C@H]3C(=O)N[C@H](C(=O)N[C@H](C(=O)O)c4cc(O)cc(O)c4-c4cc3ccc4O)[C@H](O)c3ccc(c(Cl)c3)Oc3cc2cc(c3O[C@@H]2O[C@H](CO)[C@@H](O)[C@H](O)[C@H]2O[C@H]2C[C@](C)(NCc3ccc(N=C(N)NC/C=C(\C)CCC=C(C)C)cc3)[C@H](O)[C@H](C)O2)Oc2ccc(cc2Cl)[C@H]1O [Compound 14]
[1]; [22]
  MIC50: 1 µg/mL (≈ 0.577 µM)
  MIC90: 8 µg/mL (≈ 4.62 µM)
[2]; E. faecium E0745, VanA
  MIC: 1 µg/mL (≈ 0.577 µM)
[3]; E. faecium E0013, VanA
  MIC: 2 µg/mL (≈ 1.15 µM)
[4]; E. faecium E7329, VanA
  MIC: ≤0.008 µg/mL
[5]; E. faecium E7403, VanB
  MIC: ≤0.008 µg/mL
[6]; E. faecium EO321, VanA
  MIC: 8 µg/mL (≈ 4.62 µM)
[7]; E. faecium E6016, VanA
  MIC: 2 µg/mL (≈ 1.15 µM)
[8]; E. faecium E0333, VanA
  MIC: 8 µg/mL (≈ 4.62 µM)
[9]; E. faecium E7413, VanA
  MIC: 8 µg/mL (≈ 4.62 µM)
[10]; E. faecium E7424, VanB
  MIC: ≤0.008 µg/mL
[11]; E. faecium E980 VSE
  MIC: ≤0.007812 µg/mL
[12]; E. faecium E8237, VanA
  MIC: 4 µg/mL (≈ 2.31 µM)
[13]; E. faecium E2297, VanA
  MIC: 2 µg/mL (≈ 1.15 µM)
[14]; E. faecium E7464, VanB
  MIC: ≤0.008 µg/mL
[15]; E. faecium E1679, VanA
  MIC: 16 µg/mL (≈ 9.23 µM)
[16]; E. faecium E2373, VanA
  MIC: 4 µg/mL (≈ 2.31 µM)
[17]; E. faecium E7319, VanA
  MIC: 0.5 µg/mL (≈ 0.289 µM)
[18]; E. faecium E2365, VanB
  MIC: ≤0.008 µg/mL
[19]; E. faecium E1130, VanA
  MIC: ≤0.008 µg/mL
[20]; E. faecium E7312, VanA
  MIC: 0.25 µg/mL (≈ 0.144 µM)
[21]; E. faecium E0338, VanA
  MIC: 4 µg/mL (≈ 2.31 µM)

## CCCCCCCCCCNCCN[C@@]1(C)C[C@H](O[C@H]2[C@H](Oc3c4cc5cc3Oc3ccc(cc3Cl)[C@@H](O)[C@@H](NC(=O)[C@@H](CC(C)C)NC)C(=O)N[C@@H](CC(N)=O)C(=O)N[C@H]5C(=O)N[C@H]3C(=O)N[C@H](C(=O)N[C@H](C(=O)O)c5cc(O)c(CNCP(=O)(O)O)c(O)c5-c5cc3ccc5O)[C@H](O)c3ccc(c(Cl)c3)O4)O[C@H](CO)[C@@H](O)[C@@H]2O)O[C@@H](C)[C@H]1O [Telavancin, reference compound]
[1]; Enterococcus faecium
  MIC50: 4 µg/mL (≈ 2.28 µM)
  MIC90: 8 µg/mL (≈ 4.56 µM)
[2]; Enterococcus faecium, E0745
  MIC: 4 µg/mL (≈ 2.28 µM)
[3]; Enterococcus faecium, E0013
  MIC: 4 µg/mL (≈ 2.28 µM)
[4]; Enterococcus faecium, E7329
  MIC: ≤ 0.008 µg/mL
[5]; Enterococcus faecium, E7403
  MIC: ≤ 0.008 µg/mL
[6]; Enterococcus faecium, EO321
  MIC: 16 µg/mL (≈ 9.11 µM)
[7]; Enterococcus faecium, E6016
  MIC: 4 µg/mL (≈ 2.28 µM)
[8]; Enterococcus faecium, E0333
  MIC: 8 µg/mL (≈ 4.56 µM)
[9]; Enterococcus faecium, E7413
  MIC: 8 µg/mL (≈ 4.56 µM)
[10]; Enterococcus faecium, E7424
  MIC: ≤ 0.008 µg/mL
[11]; Enterococcus faecium, E980
  MIC: 0.0156 µg/mL (≈ 0.0089 µM)
[12]; Enterococcus faecium, E8237
  MIC: 16 µg/mL (≈ 9.11 µM)
[13]; Enterococcus faecium, E2297
  MIC: 4 µg/mL (≈ 2.28 µM)
[14]; Enterococcus faecium, E7464
  MIC: ≤ 0.008 µg/mL
[15]; Enterococcus faecium, E1679
  MIC: 16 µg/mL (≈ 9.11 µM)
[16]; Enterococcus faecium, E2373
  MIC: 8 µg/mL (≈ 4.56 µM)
[17]; Enterococcus faecium, E7319
  MIC: 8 µg/mL (≈ 4.56 µM)
[18]; Enterococcus faecium, E2365
  MIC: ≤ 0.008 µg/mL
[19]; Enterococcus faecium, E1130
  MIC: ≤ 0.008 µg/mL
[20]; Enterococcus faecium, E7312
  MIC: 2 µg/mL (≈ 1.14 µM)
[21]; Enterococcus faecium, E0338
  MIC: 8 µg/mL (≈ 4.56 µM)

## CN[C@H](CC(C)C)C(=O)N[C@H]1C(=O)N[C@@H](CC(N)=O)C(=O)N[C@H]2C(=O)N[C@H]3C(=O)N[C@H](C(=O)N[C@H](C(=O)O)c4cc(O)cc(O)c4-c4cc3ccc4O)[C@H](O)c3ccc(c(Cl)c3)Oc3cc2cc(c3O[C@@H]2O[C@H](CO)[C@@H](O)[C@H](O)[C@H]2O[C@H]2C[C@](C)(N)[C@H](O)[C@H](C)O2)Oc2ccc(cc2Cl)[C@H]1O [Vancomycin, reference compound]
[1]; Enterococcus faecium
  MIC50: 128 µg/mL (≈ 88.3 µM)
  MIC90: 128 µg/mL (≈ 88.3 µM)
[2]; Enterococcus faecium, E0745
  MIC: > 128 µg/mL
[3]; Enterococcus faecium, E0013
  MIC: > 128 µg/mL
[4]; Enterococcus faecium, E7329
  MIC: 1 µg/mL (≈ 0.69 µM)
[5]; Enterococcus faecium, E7403
  MIC: 16 µg/mL (≈ 11 µM)
[6]; Enterococcus faecium, EO321
  MIC: > 128 µg/mL
[7]; Enterococcus faecium, E6016
  MIC: > 128 µg/mL
[8]; Enterococcus faecium, E0333
  MIC: > 128 µg/mL
[9]; Enterococcus faecium, E7413
  MIC: > 128 µg/mL
[10]; Enterococcus faecium, E7424
  MIC: 4 µg/mL (≈ 2.76 µM)
[11]; Enterococcus faecium, E980
  MIC: 0.5 µg/mL (≈ 0.345 µM)
[12]; Enterococcus faecium, E8237
  MIC: > 128 µg/mL
[13]; Enterococcus faecium, E2297
  MIC: > 128 µg/mL
[14]; Enterococcus faecium, E7464
  MIC: 16 µg/mL (≈ 11 µM)
[15]; Enterococcus faecium, E1679
  MIC: > 128 µg/mL
[16]; Enterococcus faecium, E2373
  MIC: > 128 µg/mL
[17]; Enterococcus faecium, E7319
  MIC: > 128 µg/mL
[18]; Enterococcus faecium, E2365
  MIC: 16 µg/mL (≈ 11 µM)
[19]; Enterococcus faecium, E1130
  MIC: > 128 µg/mL
[20]; Enterococcus faecium, E7312
  MIC: > 128 µg/mL
[21]; Enterococcus faecium, E0338
  MIC: > 128 µg/mL
